Assay in all cases: NCI anticancer screen, dose series, 48 h
Assay [1] deals with 786-0 renal.
The subject of assay [2] is A549 NSCLC.
Assay [3] concerns CAKI-1 renal.
The test system of assay [4] is CCRF-CEM leukemia.
The subject of assay [5] is EKVX NSCLC.
Assay [6] deals with HS 578T breast.
The test system of assay [7] is IGROV1 ovarian.
For assay [8], the system named is K-562 leukemia.
Assay [9] has as its system LOX IMVI melanoma.
The test system of assay [10] is MOLT-4 leukemia.
Assay [11] relates to NCI-H23 lung.
In assay [12] the test system is OVCAR-4 ovarian.
The subject of assay [13] is SN12C renal.
The test system of assay [14] is SW-620 colon.

Molecules are shown by their SMILES.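 Values below derive from 48-hour exposures of cells grown in 96-well plates, with endpoints linearly interpolated between the two concentrations bracketing the appropriate inhibition level. TGI is the concentration that stops growth completely.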

Regarding `Cc1ccc(C(=O)O)c(/C=C2\Cc3ccc(C)cc3C2=O)c1`, the TGI in assay [1], in assay [2], in [3], in [4], in assay [5] and in assay [6] was > 100 µM in each case. The TGI in [7], in [8], in assay [9], in [10], in assay [11] and in assay [12] was > 100 µM each time. The TGI in assay [13] and in assay [14] was > 100 µM each time.

With `Cc1ccc2c(ccc(/C=C/c3ccc(O)c4ncccc34)[n+]2C)c1`, the TGI in assay [1] is 26.7 µM; in assay [2], 44.1 µM; in assay [3], 33.3 µM; in assay [4] it was > 70 µM; in assay [5], 76.6 µM; in assay [6] it was > 100 µM. The TGI in assay [7] is 45.6 µM; in [8], 83.4 µM; in assay [9] it was 30.2 µM; in assay [10], > 82.2 µM; in assay [11] it was 40.7 µM; in [12] it was 33.6 µM. The TGI in assay [13] was determined as 35.6 µM; in assay [14], 28.4 µM.

In the case of `OC(CC1CCCCN1)c1ccc2c(c1)oc1ccccc12` (stereo not given), the TGI in assay [1], in assay [2], in [3], in assay [4], in [5] and in assay [6] was > 100 µM throughout. Besides, the TGI was > 100 µM in assay [7]; > 100 µM in assay [8]; > 100 µM in assay [9]; 67.1 µM in assay [10]; > 100 µM in [11]; > 100 µM in assay [12]. Further, the TGI in [13] and in assay [14] was > 100 µM throughout.

On to `COC(=O)C1Cc2cc3c(cc2C1=O)CCC3` (stereo not given), for which the TGI in assay [1], in assay [2], in assay [3], in assay [4], in [5] and in assay [6] was > 100 µM in each case. Further, the TGI in assay [7], in assay [8], in [9], in [10], in assay [11] and in assay [12] was > 100 µM in each case. Moreover, the TGI in assay [13] and in assay [14] was > 100 µM each time.

In the case of `O=C(/C=C/c1ccc(O)c(O)c1)OCC(OC(=O)/C=C/c1ccc(O)c(O)c1)C(=O)O` (stereo not given), the TGI in assay [1], in [2], in assay [3], in [4], in assay [5] and in assay [6] was > 100 µM in each case. The TGI in assay [7], in assay [8], in assay [9], in assay [10], in assay [11] and in assay [12] was > 100 µM throughout. The TGI in [13] and in assay [14] was > 100 µM each time.

On to `O=C1NC(=S)N/C1=C\c1cccs1`, for which the TGI in [1], in assay [2], in assay [3], in [4], in assay [5] and in assay [6] was > 100 µM in each case. In addition, the TGI in [7], in assay [8], in assay [9], in [10], in [11] and in assay [12] was > 100 µM throughout. The TGI in assay [13] and in assay [14] was > 100 µM each time.

`O=C(O)c1c2c(cc3c1CC(Cc1ccccc1)C3=O)CCC2` (stereo not given): the TGI in [1] is > 100 µM; in assay [2] it was 38 µM; in assay [3], > 100 µM; in [4] it was > 100 µM; in assay [5], > 100 µM; in assay [6] it was > 100 µM. Moreover, the TGI in [7], in assay [8], in [9], in assay [10], in assay [11] and in assay [12] was > 100 µM each time. For the same compound, the TGI in assay [13] and in assay [14] was > 100 µM in each case.

Consider `OC(CNc1ccccn1)c1ccccc1` (stereo not given), for which the TGI in [1], in assay [2], in [3], in [4], in [5] and in assay [6] was > 100 µM throughout. For the same compound, the TGI in assay [7], in assay [8], in assay [9], in assay [10], in assay [11] and in assay [12] was > 100 µM in each case. Also, the TGI in [13] and in assay [14] was > 100 µM each time.

In the case of `CCOC(=O)CCC(NC(=O)c1ccc(Nc2nc3ccc(C(F)(F)F)cc3nc2-c2ccccc2)cc1)C(=O)OCC` (stereo not given), the TGI in assay [1] was > 100 µM; in assay [2] it was > 100 µM; in [3] it was > 100 µM; in [4], > 100 µM; in [5] it was > 100 µM; in [6], 85.1 µM. The TGI in [7] is > 100 µM; in assay [8] it was > 100 µM; in [9], > 64.2 µM; in assay [10] it was 77.8 µM; in assay [11], > 100 µM; in [12] it was > 100 µM. For the same compound, the TGI in assay [13] and in [14] was > 100 µM throughout.

For the compound `CC(=O)SCCC(NC(=S)Nc1ccccc1)P(=O)(Oc1ccccc1)Oc1ccccc1` (stereo not given), the TGI in [1], in [2], in assay [3], in [4], in [5] and in [6] was > 100 µM throughout. The TGI in [7], in assay [8], in assay [9], in assay [10], in [11] and in assay [12] was > 100 µM each time. Also, the TGI in [13] and in assay [14] was > 100 µM throughout.

Consider `Cc1ccc(C(=O)N/N=C(\N=Nc2cccc([N+](=O)[O-])c2)c2ccc(N(CCC#N)CCC#N)cc2C)cc1`, for which the TGI in [1] is > 100 µM; in assay [2] it was > 100 µM; in assay [3], > 100 µM; in assay [4], > 69.2 µM; in assay [5], > 69.4 µM; in assay [6], > 88.3 µM. In addition, the TGI was > 100 µM in assay [7]; > 100 µM in assay [8]; > 100 µM in assay [9]; > 82.6 µM in [10]; > 82.8 µM in [11]; > 100 µM in assay [12]. The TGI in [13] and in [14] was > 100 µM each time.

On to `COc1ccc2nc(N/N=C/c3sccc3C)cc(C)c2c1`, for which the TGI in [1] is 27.6 µM; in assay [2], 56.9 µM; in assay [3], > 100 µM; in assay [4] it was 67 µM; in assay [5] it was 55.4 µM; in assay [6] it was 55.3 µM. The TGI in [7] was 32.4 µM; in assay [8], > 100 µM; in assay [9], 32.9 µM; in assay [10] it was 50.7 µM; in assay [11], 28.9 µM; in assay [12], 99.5 µM. Moreover, the TGI in [13] was 48.2 µM; in [14] it was 65 µM.

As for `COc1c(=O)cc2cc[nH]c3cc[nH]c1c23`, the TGI in [1], in assay [2], in [3], in assay [4], in assay [5] and in [6] was > 100 µM throughout. In addition, the TGI in assay [7], in [8], in assay [9], in assay [10], in [11] and in assay [12] was > 100 µM in each case. The TGI in assay [13] and in assay [14] was > 100 µM each time.

`COC(=O)[C@@H]1C=C[C@H](OC2OC(COC(C)=O)C(OC(C)=O)C(OC(C)=O)C2OC(C)=O)n2c(=O)n(-c3ccccc3)c(=O)n21` (stereo not given in full): the TGI was found to be 2.83 µM in assay [1]; 30.8 µM in [2]; 2.7 µM in assay [3]; 4.42 µM in [4]; 11.2 µM in assay [5]; 45.8 µM in assay [6]. In addition, the TGI is 12 µM in assay [7]; 4.02 µM in assay [8]; 3.09 µM in assay [9]; 5.19 µM in assay [10]; 14 µM in assay [11]; 3.22 µM in [12]. In addition, the TGI in [13] came to 7.95 µM; in assay [14] it was 3.41 µM.

As for `C=CCn1c(N)c(C#N)c(C#N)c1CCC`, the TGI in assay [1], in assay [2], in assay [3], in [4], in [5] and in assay [6] was > 100 µM throughout. For the same compound, the TGI in assay [7], in assay [8], in assay [9], in assay [10], in [11] and in [12] was > 100 µM each time. Moreover, the TGI in [13] and in assay [14] was > 100 µM throughout.

Take `Cc1cc(C)c2c(=O)cc(-c3cccc4ccccc34)[nH]c2n1`: the TGI in assay [1], in assay [2], in [3], in assay [4], in assay [5] and in assay [6] was > 100 µM each time. The TGI in assay [7] is > 84.5 µM; in assay [8], > 100 µM; in assay [9], 26.4 µM; in assay [10], 42.7 µM; in assay [11], > 61.6 µM; in assay [12], > 100 µM. The TGI was > 100 µM in [13] and > 88.8 µM in assay [14].

Take `O=C(O)CO[C@@]12C#C/C=C\C#C[C@@H]3N(C(=O)Oc4ccccc4)c4ccccc4[C@]14O[C@@]34CCC2`: the TGI in [1] was > 100 µM; in [2], > 100 µM; in assay [3], > 100 µM; in [4], > 100 µM; in [5], > 100 µM; in [6], 69.4 µM. Moreover, the TGI in assay [7] is > 100 µM; in [8], 92.9 µM; in [9], > 100 µM; in [10] it was > 100 µM; in [11], > 100 µM; in assay [12], > 100 µM. The TGI in assay [13] and in assay [14] was > 100 µM each time.

For the compound `Nn1c(C23CC4CC(CC(C4)C2)C3)n[nH]c1=S`, the TGI in assay [1], in assay [2], in [3], in assay [4], in assay [5] and in assay [6] was > 100 µM each time. Besides, the TGI in assay [7], in assay [8], in assay [9], in assay [10], in [11] and in assay [12] was > 100 µM throughout. Further, the TGI in assay [13] and in [14] was > 100 µM each time.

As to `C=C(CCOC)CCC1CCCCC(CN(C)C)C1=O` (stereo not given), the TGI in assay [1], in [2], in assay [3], in assay [4], in [5] and in assay [6] was > 100 µM each time. Further, the TGI in [7], in assay [8], in assay [9], in [10], in [11] and in assay [12] was > 100 µM in each case. Also, the TGI in assay [13] and in [14] was > 100 µM each time.

As to `N#Cc1c(-c2ccc(Cl)cc2)c2c(n(C3OC(CO)C(O)C(O)C3O)c1=S)CCCC2` (stereo not given), the TGI in assay [1], in assay [2], in [3], in assay [4], in [5] and in assay [6] was > 100 µM throughout. The TGI in assay [7] was > 100 µM; in [8], > 100 µM; in [9] it was > 100 µM; in assay [10], 87.1 µM; in [11], > 100 µM; in [12] it was > 100 µM. Moreover, the TGI in assay [13] and in assay [14] was > 100 µM throughout.

The record behind these values is PubChem BioAssay (NCI).
